These results are taken from patent publication US20070060605A1, “Compositions and methods for inhibiting platelet activation and thrombosis” (priority 2001, published 2007).

One assay has as its system platelet GPIIbIIIa. The experiment in a line: SFLLR-induced GPIIbIIIa activation (PAC-1 antibody, flow cytometry). Type of assay: cell-based, human. To be noted: PAC-1 antibodies. As to the method:
In order to assay platelet activation by cell surface marker expression, fresh PRP is isolated from donors who have not ingested aspirin for two weeks prior to donation. PRP (40 μl) is incubated with known or suspected inhibitor in DMSO or DMSO alone for 15 min. The sample is then incubated with the indicated agonist (e.g., SFLLR) for 10 min. Following incubation of the sample with the indicated agonist, 10 μl of reaction mixture is transferred to 5 μl of phycoerythrin (PE)-conjugated AC 1.2 anti-P-selectin antibody (for assessment of P-selectin surface expression) or fluorescein isothiocyanate (FITC)-conjugated PAC-1 antibody (for assessment of GPIIbIIIa activation). PBS (500 μl) is added to the sample after a 20 min incubation and the platelets are analyzed immediately by flow cytometry. Flow cytometry can be performed using, for example, a Becton-Dickinson FACSCalibur flow cytometer or its equivalent. Fluorescent channels are set at logarithmic gain. Ten thousand particles are acquired for each sample. A 530/30 band pass filter is used for FL-1 fluorescence. A 585/42 band pass filter is used for FL-2 fluorescence. FITC is measured in the FL-1 channel and PE is measured in the FL-2 channel. Data are analyzed using, for example, CellQuest software on a Macintosh PowerPC, or their equivalents.
Compounds were also tested by flow cytometry for the inhibition of SFLLR-induced GPIIbIIIa activation and P-selectin expression. In these experiments, freshly obtained PRP was prepared from healthy volunteers who had not ingested aspirin for two weeks prior to donation. Forty μl of PRP was incubated with inhibitor in DMSO or DMSO alone for 15 min. The sample was then incubated with the indicated agonist for 10 min. Following incubation of the sample with the indicated agonist, 10 μl of reaction mixture was transferred to 5 μl of PE-conjugated AC1.2 anti-P-selectin antibody (for assessment of P-selectin surface expression) or FITC-conjugated PAC-1 antibody (for assessment of GPIIbIIIa activation). PBS (500 μl) was added to the sample after a 20 min incubation and the platelets were analyzed immediately by flow cytometry. Flow cytometry was performed using a Becton-Dickinson FACSCalibur flow cytometer. Fluorescent channels were set at logarithmic gain. Ten thousand particles were acquired for each sample. A 530/30 band pass filter was used for FL-1 fluorescence. A 585/42 band pass filter was used for FL-2 fluorescence. FITC was measured in the FL-1 channel and PE was measured in the FL-2 channel. Data were analyzed using CellQuest software on a MacIntosh PowerPC.
(Flow cytometry measures light scatter and fluorescence of single cells or particles in a stream.)

The target of a further assay is recombinant human PDE2 (Homo sapiens, UniProt O00408). The experiment in a line: Phosphodiesterase inhibition, PDE2. The format is biochemical. To be noted: up to 1 μM. The protocol: Intracellular cAMP generated by adenylyl cyclase in platelets is actively hydrolyzed by phosphodiesterase. […] Human platelets express PDE2, PDE3, and PDE5. Therefore, the compound was tested for its inhibitory effect on these phosphodiesterases using methods as described in Example 3.
Sequence of recombinant human PDE2 (O00408 whole entry): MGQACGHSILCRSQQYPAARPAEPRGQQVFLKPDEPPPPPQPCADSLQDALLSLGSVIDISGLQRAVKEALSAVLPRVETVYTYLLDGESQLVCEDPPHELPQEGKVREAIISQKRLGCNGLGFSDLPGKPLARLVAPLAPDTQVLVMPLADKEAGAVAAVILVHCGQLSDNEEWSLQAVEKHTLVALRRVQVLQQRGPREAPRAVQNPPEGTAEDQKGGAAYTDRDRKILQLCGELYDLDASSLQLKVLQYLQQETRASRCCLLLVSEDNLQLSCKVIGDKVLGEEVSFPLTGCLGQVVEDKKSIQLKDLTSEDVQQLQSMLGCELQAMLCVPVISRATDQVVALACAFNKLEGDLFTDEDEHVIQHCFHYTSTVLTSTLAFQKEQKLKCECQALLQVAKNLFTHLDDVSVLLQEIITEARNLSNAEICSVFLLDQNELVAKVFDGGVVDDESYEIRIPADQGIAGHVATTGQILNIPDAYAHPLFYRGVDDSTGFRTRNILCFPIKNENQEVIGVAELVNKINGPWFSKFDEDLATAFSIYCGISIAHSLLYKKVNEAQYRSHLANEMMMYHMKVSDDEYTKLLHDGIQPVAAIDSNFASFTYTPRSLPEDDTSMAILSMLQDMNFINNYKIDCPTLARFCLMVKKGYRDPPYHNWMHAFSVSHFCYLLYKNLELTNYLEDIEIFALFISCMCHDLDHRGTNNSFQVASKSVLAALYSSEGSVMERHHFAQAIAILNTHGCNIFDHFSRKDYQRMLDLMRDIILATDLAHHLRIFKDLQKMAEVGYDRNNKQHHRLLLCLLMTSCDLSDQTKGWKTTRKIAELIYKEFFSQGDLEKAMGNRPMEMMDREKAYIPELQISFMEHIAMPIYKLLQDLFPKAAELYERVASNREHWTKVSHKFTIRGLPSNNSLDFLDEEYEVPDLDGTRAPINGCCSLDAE

Assay [1] deals with platelet accumulation into thrombus. The format is in vivo. The source says:
A preferred animal model involves intravital microscopy of laser-induced thrombi. The method is described by Rosen et al., 2001, Am J Pathol 158, 1613-1622, which is incorporated herein by reference. Minor variations of that method were employed as described below.
Experimental mice are pre-anesthetized and surgically prepared. A tracheal tube is placed to facilitate breathing and the jugular vein is canulated to allow for maintenance of anesthetic and introduction of compound. The cremaster muscle is then exteriorized. The muscle is affixed over a glass slide, allowing illumination from below. A steady drip of a sodium-bicarbonate buffered salt solution is maintained throughout the experiment to keep the exposed muscle moist. Blood flow in the muscle is visualized using a 40× water immersion lens and epi-illuminated with an appropriately filtered light source. Alexa 488-labeled anti-mouse CD41 antibody is injected through the jugular canulus to label platelets in vivo.
Thrombosis is initiated by damaging the vessel wall (of a 30 μm vessel) with a laser pulse from a MicroPoint LASER attached to the microscope. A LASER pulse is delivered, causing damage in an area smaller than 1 μm. The recruitment of platelets to the thrombus is then monitored by the accumulation of (activated) Alexa 488-labeled platelets at the ablation site using fluorescence microscopy, and the process is recorded digitally. The method thus permits in vivo analysis of platelet activation as measured by platelet aggregation and thrombosis.
The degree of embolization in an untreated mouse can be quantified using software for image analysis, e.g., BioQuant True Color Windows (Biometrics, Nashville, Tenn.), as described in Rosen et al., 2001, supra. The software package permits the determination of the “integrated optical density” or IOD of the thrombus.
Using quantitative intravital fluorescence videomicroscopy with high temporal resolution (111 images/second), the effect of PDE3 inhibition on the platelet recruitment into thrombi was directly observed over time. Platelets were fluorescently labeled by infusing rat-anti-mouse CD41 and Alexa 488-anti-rat IgG through a cannulated jugular vein. The cremaster microvasculature was exposed and mapped and suitable arteriole segments were selected for laser-induced injury. A series of control injuries were generated prior to infusion of the inhibitory compound. The power and the number of laser pulses required to generate each thrombus was recorded. Platelet accumulation to the thrombi following laser ablation was recorded using digital videomicroscopy. The thrombus total fluorescence in each frame of the videos was analyzed using Slidebook software for digital videomicroscopy. The pyridazinone compound was then infused. Following a 15 minute incubation, a series of experimental injuries were generated 250 μm proximal, with relationship to blood flow, of the first injury and the resultant thrombi were recorded. The power and the number of pulses required to induce the control thrombus was used to induce the experimental thrombus. The control and experimental thrombi constituting a pair were compared for statistical analysis. The total fluorescence intensity of the thrombi before and after the infusion of pyridazinone compound was recorded.
Images from a representative experiment of the recruitment of fluorescently-labeled […] platelets into a growing thrombus over time is shown in FIG. 9A.

Another assay concerns platelets. The experiment in a line: F-actin assembly (FITC-phalloidin, flow cytometry). The format is cell-based, human. To be noted: agonist SFLLR. The source says: To determine whether or not the effects of the pyridazinone compound were limited to inhibition of alpha-granule secretion, the ability of the compound to inhibit F-actin assembly and αIIbβ3 activation was examined. F-actin assembly was detected using FITC-phalloidin and quantified by flow cytometry (Winokur et al., 1995, Blood 85, 1796-804; Oda et al., 1992, Blood 79, 920-7).

Where two headings read alike, the source gives them in different places.

Consider `CC1CC(=O)NN=C1c1ccc(N)c([N+](=O)[O-])c1` (centres unmarked) [6-(4-Amino-3-nitro-phenyl)-5-methyl-4,5-dihydro-2H-pyridazin-3-one], for which, in the assay on platelet GPIIbIIIa, the “SFLLR-induced αIIbβ3 activation” value was “inhibited”. In addition, the “Inhibition of recombinant human PDE2” value at recombinant human PDE2 (listed as Pyridazinone compound) is “No significant inhibition”; at recombinant human PDE2 (listed as pyridazinone compound), “little inhibition”. In addition, the “Inhibition of maximal rate of platelet recruitment” value was 37% in assay [1] (0.3 mg/kg) and 56% in assay [1] (1.2 mg/kg). Besides, the “Median Stabilized/Maximum platelet accumulation” value in assay [1] (0.3 mg/kg) is 36%; in assay [1] (0.6 mg/kg), 41%; in assay [1] (1.2 mg/kg), 33%. Further, the figures for the “Inhibition of maximum platelet accumulation” value in assay [1] (0.6 mg/kg) and in assay [1] (1.2 mg/kg) were 61% and 56%, respectively. Moreover, the Stabilized platelet accumulation entry in assay [1] (0.6 mg/kg (P<0.05) and 1.2 mg/kg (P<0.01)) was “dose-dependent inhibition”. Also, the “Maximum platelet accumulation compared to absence of compound” value in assay [1] (0.6 mg/kg and 1.2 mg/kg (P<0.05)) was “statistically significant decrease”. Further, the “Inhibition of stabilized platelet accumulation” value in assay [1] (0.6 mg/kg, 300 seconds after laser injury) is 54%; in assay [1] (1.2 mg/kg, 300 seconds after laser injury) it was 72%. Further, the “Median total thromboembolization, % of the maximum platelet accumulation of control thrombi” value in assay [1] (1.2 mg/kg, p<0.04) is given as 1.0%. Moreover, the Thromboembolization entry is “significantly reduced” in assay [1] (after infusion of 1.2 mg/kg) and “inhibited” in assay [1] (same mouse model, dose not stated). Further, the Reduction of embolization result in assay [1] (after injection, laser-induced thrombus) is given as “greater than 80%”. Further, the “Inhibition of thrombus formation” value in assay [1] (laser-induced thrombosis, P<0.01) is 72%. In addition, the “SFLLR-induced F-actin assembly / cytoskeleton rearrangement” value in the assay with platelets is recorded as “interferes”.
For the molecule `CCCCCn1c2c(c(=N)c3ccccc31)CCC2` [JF081204{5C}], the “Time for thrombus to achieve 50% maximum platelet accumulation / onset of platelet accumulation” value in assay [1] (1 mg/kg (P<0.001), 3 mg/kg (P<0.05), 6 mg/kg (P<0.001)) is listed as “statistically significant delay”. In assay [1] (1 mg/kg, 3 mg/kg, and 6 mg/kg), the “Platelet accumulation over stages of thrombus formation” value is on record as “inhibited at all stages”. The “Median of maximum platelet accumulation compared to absence of compound” value in assay [1] (3 mg/kg (P<0.002) and 6 mg/kg (P<0.02)) is recorded as “statistically significant decrease”. For the same molecule, the “Median stabilized platelet accumulation” value in assay [1] (3 mg/kg (P<0.01) and 6 mg/kg (P<0.001)) is given as “dose-dependent inhibition”. Also, in assay [1] (dose-dependent, 1-6 mg/kg), the “Inhibition of maximum platelet accumulation” value is given as “up to 80%”. For the same molecule, the “Inhibition of stabilized platelet accumulation” value in assay [1] (dose-dependent, 5 minutes following laser injury) is “up to 75%”.
